These compounds were tested on HIV (assay: Table 1 IC50 of the examples (assay method not given; patent concerns inhibiting HIV replication)). Details: Human immunodeficiency virus 1.
Type: cell-based

How did the IC50 turn out when Cc1cc2c(c(-c3cc(F)c4c(c3C)CCCO4)c1[C@H](OC(C)(C)C)C(=O)O)CCN2C(=O)c1cccc(C(=O)N2CCCCC2)c1 (atropisomer, axis not shown) [Example 164, (S)-2-(tert-Butoxy)-2-((R)-4-(8-fluoro-5-methylchroman-6-yl)-6-methyl-1-(3-(piperidine-1-carbonyl)benzoyl)indolin-5-yl)acetic acid] was run?
Its IC50 is 176 nM.

For COc1c(C(=O)N2CCc3c2cc(C)c([C@H](OC(C)(C)C)C(=O)O)c3-c2cc(F)c3c(c2C)CCCO3)cccc1C(F)(F)F (atropisomer, axis not shown) [Example 180, (S)-2-(tert-Butoxy)-2-((R)-4-(8-Fluoro-5-methylchroman-6-yl)-1-(2-methoxy-3-(trifluoromethyl)benzoyl)-6-methylindolin-5-yl)acetic acid], which IC50 is on record?
The IC50 was 5 nM.

How did the IC50 turn out when CC(=O)Nc1ccc(C(=O)N2CCc3c2cc(C)c([C@H](OC(C)(C)C)C(=O)O)c3-c2cc(F)c3c(c2C)CCCO3)cc1 (atropisomer, axis not shown) [Example 104, (S)-2-((R)-1-(4-Acetamidobenzoyl)-4-(8-fluoro-5-methylchroman-6-yl)-6-methylindolin-5-yl)-2-(tert-butoxy)acetic acid] was run?
The IC50 was 323 nM.

Which IC50 does the source give for COc1ccc(F)c(C(=O)N2CCc3c2cc(C)c([C@H](OC(C)(C)C)C(=O)O)c3-c2cc(F)c3c(c2C)CCCO3)c1 (atropisomer, axis not shown) [Example 167, (S)-2-(tert-Butoxy)-2-((R)-1-(2-fluoro-5-methoxybenzoyl)-4-(8-fluoro-5-methylchroman-6-yl)-6-methylindolin-5-yl)acetic acid] here?
The IC50 was 7 nM.

Cc1cc2c(c(-c3cc(F)c4c(c3C)CCCO4)c1[C@H](OC(C)(C)C)C(=O)O)CCN2C(=O)c1cccnc1C (atropisomer, axis not shown) [Example 173, (S)-2-(tert-butoxy)-2-((R)-4-(8-fluoro-5-methylchroman-6-yl)-6-methyl-1-(2-methylnicotinoyl)indolin-5-yl)acetic acid] was tested. Which IC50 did it give?
Its IC50 is 13 nM.

Which IC50 does the source give for COc1cc(Cl)ccc1C(=O)N1CCc2c1cc(C)c([C@H](OC(C)(C)C)C(=O)O)c2-c1ccc2c(c1C)CCCO2 (atropisomer, axis not shown) [Example 183, (S)-2-(tert-Butoxy)-2-((R)-1-(4-chloro-2-methoxybenzoyl)-6-methyl-4-(5-methylchroman-6-yl)indolin-5-yl)acetic acid] here?
The IC50 was 4 nM.

With COc1ccc(C)c(C(=O)N2CCc3c2cc(C)c([C@H](OC(C)(C)C)C(=O)O)c3-c2cc(F)c3c(c2C)CCCO3)c1 (atropisomer, axis not shown) [Example 107, (S)-2-(tert-Butoxy)-2-((R)-4-(8-fluoro-5-methylchroman-6-yl)-1-(5-methoxy-2-methylbenzoyl)-6-methylindolin-5-yl)acetic acid] as the compound, how does the IC50 read?
Its IC50 is 5 nM.

CCCNC(=O)N1CCCc2c1cc(C)c(C(OC(C)(C)C)C(=O)O)c2-c1ccc(C)cc1 (stereo not shown) [Example 210, 2-(tert-Butoxy)-2-(7-methyl-1-(propylcarbamoyl)-5-(p-tolyl)-1,2,3,4-tetrahydroquinolin-6-yl)acetic acid] was tested. Which IC50 did it give?
Its IC50 is 4290 nM.

How did the IC50 turn out when CNC(=O)c1ccc(C(=O)N2CCc3c2cc(C)c([C@H](OC(C)(C)C)C(=O)O)c3-c2cc(F)c3c(c2C)CCCO3)cc1 (atropisomer, axis not shown) [Example 95, (S)-2-(tert-Butoxy)-2-((R)-4-(8-fluoro-5-methylchroman-6-yl)-6-methyl-1-(4-(methylcarbamoyl)benzoyl)indolin-5-yl)acetic acid] was run?
The IC50 was 142 nM.

For Cc1cc2c(c(-c3cc(F)c4c(c3C)CCCO4)c1[C@H](OC(C)(C)C)C(=O)O)CCN2C(=O)c1ccc(C(F)(F)F)cc1F (atropisomer, axis not shown) [Example 136, (S)-2-(tert-Butoxy)-2-((R)-1-(2-fluoro-4-(trifluoromethyl)benzoyl)-4-(8-fluoro-5-methylchroman-6-yl)-6-methylindolin-5-yl)acetic acid], which IC50 is on record?
Its IC50 is 41 nM.

For COc1ccc(C(=O)N2CCc3c2cc(C)c([C@H](OC(C)(C)C)C(=O)O)c3-c2cc(C(F)(F)F)c3c(c2C)CCCO3)cc1C (atropisomer, axis not shown) [Example 196, (S)-2-(tert-Butoxy)-2-((R)-1-(4-methoxy-3-methylbenzoyl)-6-methyl-4-(5-methyl-8-(trifluoromethyl)chroman-6-yl)indolin-5-yl)acetic acid], which IC50 is on record?
Its IC50 is 359 nM.

For Cc1ccc(C(=O)N2CCc3c2cc(C)c([C@H](OC(C)(C)C)C(=O)O)c3-c2cc(F)c3c(c2C)CCCO3)cc1C (atropisomer, axis not shown) [Example 94, (S)-2-(tert-Butoxy)-2-((R)-1-(3,4-dimethylbenzoyl)-4-(8-fluoro-5-methylchroman-6-yl)-6-methylindolin-5-yl)acetic acid], which IC50 is on record?
Its IC50 is 4 nM.

How did the IC50 turn out when Cc1ccc(-c2c3c(cc(C)c2[C@H](OC(C)(C)C)C(=O)O)N(C(=O)c2ccc(C)c(F)c2)CC3)cc1 [Example 31, (S)-2-(tert-Butoxy)-2-(1-(3-fluoro-4-methylbenzov)-6-methyl-4-(p-tolyl)indolin-5-yl)acetic acid] was run?
Its IC50 is 12 nM.

Cc1ccc(-c2c3c(cc(C)c2[C@H](OC(C)(C)C)C(=O)O)N(S(=O)(=O)C2CCCCC2)CC3)cc1 [Example 28, (S)-2-(tert-Butoxy)-2-(1-(cyclohexylsulfonyl)-6-methyl-4-(p-tolyl)indolin-5-yl)acetic acid] was tested. Which IC50 did it give?
Its IC50 is 11400 nM.

COc1cccc(C(=O)N2CCc3c2cc(C)c([C@H](OC(C)(C)C)C(=O)O)c3-c2ccc(C)cc2)c1F [Example 20, (S)-2-(tert-Butoxy)-2-(1-(2-fluoro-3-methoxybenzoyl)-6-methyl-4-(p-tolyl)indolin-5-yl)acetic acid] was tested. Which IC50 did it give?
Its IC50 is 66 nM.

COc1ccc(C(=O)N2CCc3c2cc(C)c([C@H](OC(C)(C)C)C(=O)O)c3-c2cc(F)c3c(c2C)CCCO3)c(C(F)(F)F)c1 (atropisomer, axis not shown) [Example 152, (S)-2-(tert-Butoxy)-2-((R)-4-(8-fluoro-5-methylchroman-6-yl)-1-(4-methoxy-2-(trifluoromethyl)benzoyl)-6-methylindolin-5-yl)acetic acid] was tested. Which IC50 did it give?
The IC50 was 13 nM.

COc1cc(C(F)(F)F)ccc1C(=O)N1CCc2c1cc(C)c([C@H](OC(C)(C)C)C(=O)O)c2-c1cc(F)c2c(c1C)CCCO2 (atropisomer, axis not shown) [Example 163, (S)-2-(tert-Butoxy)-2-((R)-4-(8-fluoro-5-methylchroman-6-yl)-1-(2-methoxy-4-(trifluoromethyl)benzoyl)-6-methylindolin-5-yl)acetic acid] was tested. Which IC50 did it give?
The IC50 was 9 nM.

With Cc1cc2c(c(-c3cc(F)c4c(c3C)CCCO4)c1[C@H](OC(C)(C)C)C(=O)O)CCN2C(=O)c1ccc(Cl)cc1Cl (atropisomer, axis not shown) [Example 70, (S)-2-(tert-Butoxy)-2-((R)-1-(2,4-dichlorobenzoyl)-4-(8-fluoro-5-methylchroman-6-yl)-6-methylindolin-5-yl)acetic acid] as the compound, how does the IC50 read?
Its IC50 is 5 nM.

Which IC50 does the source give for Cc1cc(C(=O)N2CCc3c2cc(C)c([C@H](OC(C)(C)C)C(=O)O)c3-c2cc(F)c3c(c2C)CCCO3)ccc1F (atropisomer, axis not shown) [Example 48, (S)-2-(tert-Butoxy)-2-((R)-1-(4-fluoro-3-methylbenzoyl)-4-(8-fluoro-5-methylchroman-6-yl)-6-methylindolin-5-yl)acetic acid] here?
Its IC50 is 4 nM.

Cc1cc2c(c(-c3cc(F)c4c(c3C)CCCO4)c1[C@H](OC(C)(C)C)C(=O)O)CCN2C(=O)c1ccccc1Cl (atropisomer, axis not shown) [Example 98, (S)-2-(tert-Butoxy)-2-((R)-1-(2-chlorobenzoyl)-4-(8-fluoro-5-methylchroman-6-yl)-6-methylindolin-5-yl)acetic acid] was tested. Which IC50 did it give?
The IC50 was 2 nM.

Cc1cc2c(c(-c3cc(F)c4c(c3C)CCCO4)c1[C@H](OC(C)(C)C)C(=O)O)CCN2C(=O)c1cccc2c1CCCC2 (atropisomer, axis not shown) [Example 59, (S)-2-(tert-Butoxy)-2-((R)-4-(8-fluoro-5-methylchroman-6-yl)-6-methyl-1-(5,6,7,8-tetrahydronaphthalene-1-carbonyl)indolin-5-yl)acetic acid] was tested. Which IC50 did it give?
The IC50 was 6 nM.

Cc1cc(Cl)cc(C(=O)N2CCc3c2cc(C)c([C@H](OC(C)(C)C)C(=O)O)c3-c2cc(F)c3c(c2C)CCCO3)c1 (atropisomer, axis not shown) [Example 141, (S)-2-(tert-Butoxy)-2-((R)-1-(3-chloro-5-methylbenzoyl)-4-(8-fluoro-5-methylchroman-6-yl)-6-methylindolin-5-yl)acetic acid] was tested. Which IC50 did it give?
Its IC50 is 6 nM.

With COc1cccc(C(=O)N2CCc3c2cc(C)c([C@H](OC(C)(C)C)C(=O)O)c3-c2cc(F)c3c(c2C)CCCO3)c1OC (atropisomer, axis not shown) [Example 84, (S)-2-(tert-Butoxy)-2-((R)-1-(2,3-dimethoxybenzoyl)-4-(8-fluoro-5-methylchroman-6-yl)-6-methylindolin-5-yl)acetic acid] as the compound, how does the IC50 read?
The IC50 was 41 nM.

How did the IC50 turn out when Cc1ccc(C)c(C(=O)N2CCc3c2cc(C)c([C@H](OC(C)(C)C)C(=O)O)c3-c2cc(F)c3c(c2C)CCCO3)c1 (atropisomer, axis not shown) [Example 69, (S)-2-(tert-Butoxy)-2-((R)-1-(2,5-dimethylbenzoyl)-4-(8-fluoro-5-methylchroman-6-yl)-6-methylindolin-5-yl)acetic acid] was run?
Its IC50 is 5 nM.

With Cc1cccc(C(=O)N2CCc3c2cc(C)c([C@H](OC(C)(C)C)C(=O)O)c3-c2cc(F)c3c(c2C)CCCO3)c1C (atropisomer, axis not shown) [Example 121, (S)-2-(tert-Butoxy)-2-((R)-1-(2,3-dimethylbenzoyl)-4-(8-fluoro-5-methylchroman-6-yl)-6-methylindolin-5-yl)acetic acid] as the compound, how does the IC50 read?
Its IC50 is 7 nM.
